Experimental data published in US7452887B2, “Quinoline- and isoquinoline-based compounds exhibiting ATP-utilizing enzyme inhibitory activity, and compositions, and uses thereof” (Amphora Discovery Corporation, priority 2004, dated 2008).

What follows are molecules tested against MAPKAPK2 (Homo sapiens, UniProt P49137) (assay: HTS ATP-utilizing enzyme assay, off-chip mobility-shift (Caliper HTS 250)). Conditions: test compound 10 μM, kinase listed = active (greater than six-sigma from the mean activity of inactive compounds).
Assay type: biochemical
Description: The following procedures describe the reagent and plate preparation for a HTS of an ATP-utilizing enzyme, such as a protein kinase, run in an off-chip mobility-shift assay format. The following provides an HTS protocol for running a protein kinase HTS screen on a Caliper HTS 250 microfluidics system. The following parameters are dependent on the protein kinase used and can be determined by one skilled in the art as part of a typical assay development process. For example, the peptide substrate used can be identified from the current literature, by screening a peptide library of potential protein kinase substrates, or by other applicable means accepted in the field.
The following table provides typical screen assay parameters appropriate for a Caliper HTS 250 microfluidics system.
The reagents and buffers listed in the following table are generally applicable for developing and running an HTS screen on a human protein kinase using the Caliper HTS 250 system.
The following reagents were prepared using the previously described buffers.
A 2× Master Buffer solution was prepared by combining 200 mL of 1 M HEPES, pH 7.5, 2 mL of 10% Triton X-100, 20 mL of 10% BSA, and 778 mL of H2O.
A TCB Buffer solution was prepared by combining 125 mL of 2× Master Buffer, 10 mL of 0.5 M EDTA, 6.25 mL of 4% coating reagent, 1.01 mL of 100% DMSO, and 107.74 mL H2O.
Assays to determine the kinase inhibitory activity of compounds of the present disclosure were performed using a Caliper HTS 250 microfluidics device, Greiner U-bottom assay plates, a Multidrop for transfer of reagents, and Biomek FX (AMNCBM03) software. Initially, 2.4 μL of a 1 mM solution of a test compound in 100% DMSO was added to a well of the Greiner U-bottom plate. A single Greiner U-bottom plate having 24×16 wells could include multiple test compounds. […] Using the Biomek FX, 10 μL of 0.5 M EDTA was added by the span-8 to wells, indicated as 100% Control and 2.4 μL of 100% DMSO was added by the span-8 to wells, indicated as 0% Control. […] The total reaction volume in each well was 25 μL, and the concentration of the test compound was 10 μM. The assay plate was incubated for 2.5 hrs at 20° C. to 22° C. […] The inhibition of the ATP-utilizing enzyme, such as a particular protein kinase, was determined by measuring the ratio of the peptide substrate to phosphorylated product for each well of the assay plate using the Caliper HTS 250 system.
The use of six-sigma statistical limits represents a conservative method for declaring potential hits among targets. The six-sigma activity, as well as the mean population activity, can be different for each target enzyme.

Chain of MAPKAPK2 (P49137 whole entry): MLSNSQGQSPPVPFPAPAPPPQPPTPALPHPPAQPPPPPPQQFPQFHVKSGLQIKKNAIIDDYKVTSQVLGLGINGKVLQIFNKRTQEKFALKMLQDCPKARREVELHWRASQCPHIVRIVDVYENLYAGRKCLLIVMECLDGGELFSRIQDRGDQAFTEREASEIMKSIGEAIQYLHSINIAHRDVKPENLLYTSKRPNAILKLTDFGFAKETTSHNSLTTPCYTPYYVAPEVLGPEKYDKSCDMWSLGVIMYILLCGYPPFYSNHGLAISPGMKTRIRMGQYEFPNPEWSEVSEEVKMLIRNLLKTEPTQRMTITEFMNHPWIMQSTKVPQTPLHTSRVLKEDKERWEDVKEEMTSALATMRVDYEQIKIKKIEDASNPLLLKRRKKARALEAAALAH

Activity, MAPKAPK2:
CCN(CC)C1CCN(c2ccc(Nc3ccnc4ccc(-c5ccc6ccccc6c5)cc34)cc2)C1 (stereo not shown) [N-(4-(3-(diethylamino)pyrrolidin-1-yl)phenyl)-6-(naphthalen-2-yl)quinolin-4-amine]
CN(C)C1CCN(c2ccc(Nc3ccnc4ccc(-c5cccc6[nH]ccc56)cc34)cc2)C1 (stereo not shown) [N-(4-(3-(dimethylamino)pyrrolidin-1-yl)phenyl)-6-(1H-indol-4-yl)quinolin-4-amine]
CN(C)C1CCN(c2ccc(Nc3ccnc4ccc(-c5ccc6[nH]ccc6c5)cc34)cc2)C1 (stereo not shown) [N-(4-(3-(dimethylamino)pyrrolidin-1-yl)phenyl)-6-(1H-indol-5-yl)quinolin-4-amine]
CN(C)C1CCN(c2ccc(Nc3ccnc4ccc(-c5ccc6cc[nH]c6c5)cc34)cc2)C1 (stereo not shown) [N-(4-(3-(dimethylamino)pyrrolidin-1-yl)phenyl)-6-(1H-indol-6-yl)quinolin-4-amine]
Cc1ccc(-c2ccc3nccc(Nc4ccc(N5CCC(N(C)C)C5)cc4)c3c2)cc1C (stereo not shown) [N-(4-(3-(dimethylamino)pyrrolidin-1-yl)phenyl)-6-(3,4-dimethylphenyl)quinolin-4-amine]
COc1ccc(-c2ccc3nccc(Nc4ccc(N5CCC(N(C)C)C5)cc4)c3c2)cc1F (stereo not shown) [N-(4-(3-(dimethylamino)pyrrolidin-1-yl)phenyl)-6-(3-fluoro-4-methoxyphenyl)quinolin-4-amine]
Cc1ccc(-c2ccc3nccc(Nc4ccc(N5CCC(N(C)C)C5)cc4)c3c2)cc1F (stereo not shown) [N-(4-(3-(dimethylamino)pyrrolidin-1-yl)phenyl)-6-(3-fluoro-4-methylphenyl)quinolin-4-amine]
COc1cccc(-c2ccc3nccc(Nc4ccc(N5CCC(N(C)C)C5)cc4)c3c2)c1 (stereo not shown) [N-(4-(3-(dimethylamino)pyrrolidin-1-yl)phenyl)-6-(3-methoxyphenyl)quinolin-4-amine]
Cc1cc(-c2ccc3nccc(Nc4ccc(N5CCC(N(C)C)C5)cc4)c3c2)ccc1F (stereo not shown) [N-(4-(3-(dimethylamino)pyrrolidin-1-yl)phenyl)-6-(4-fluoro-3-methylphenyl)quinolin-4-amine]
CC(C)c1ccc(-c2ccc3nccc(Nc4ccc(N5CCC(N(C)C)C5)cc4)c3c2)cc1 (stereo not shown) [N-(4-(3-(dimethylamino)pyrrolidin-1-yl)phenyl)-6-(4-isopropylphenyl)quinolin-4-amine]
COc1ccc(-c2ccc3nccc(Nc4ccc(N5CCC(N(C)C)C5)cc4)c3c2)cc1 (stereo not shown) [N-(4-(3-(dimethylamino)pyrrolidin-1-yl)phenyl)-6-(4-methoxyphenyl)quinolin-4-amine]
C=Cc1ccc(-c2ccc3nccc(Nc4ccc(N5CCC(N(C)C)C5)cc4)c3c2)cc1 (stereo not shown) [N-(4-(3-(dimethylamino)pyrrolidin-1-yl)phenyl)-6-(4-vinylphenyl)quinolin-4-amine]
Cc1ccc(-c2ccc3nccc(Nc4ccc(N5CCC(N(C)C)C5)cc4)c3c2)nc1 (stereo not shown) [N-(4-(3-(dimethylamino)pyrrolidin-1-yl)phenyl)-6-(5-methylpyridin-2-yl)quinolin-4-amine]
CN(C)C1CCN(c2ccc(Nc3ccnc4ccc(-c5ccc6ccccc6c5)cc34)cc2)C1 (stereo not shown) [N-(4-(3-(dimethylamino)pyrrolidin-1-yl)phenyl)-6-(naphthalen-2-yl)quinolin-4-amine]
CN(C)C1CCN(c2ccc(Nc3ccnc4ccc(-c5nccs5)cc34)cc2)C1 (stereo not shown) [N-(4-(3-(dimethylamino)pyrrolidin-1-yl)phenyl)-6-(thiazol-2-yl)quinolin-4-amine]
Cc1cccc(-c2ccc3nccc(Nc4ccc(N5CCC(N(C)C)C5)cc4)c3c2)c1 (stereo not shown) [N-(4-(3-(dimethylamino)pyrrolidin-1-yl)phenyl)-6-m-tolylquinolin-4-amine]
Cc1ccc(-c2ccc3nccc(Nc4ccc(N5CCC(N(C)C)C5)cc4)c3c2)cc1 (stereo not shown) [N-(4-(3-(dimethylamino)pyrrolidin-1-yl)phenyl)-6-p-tolylquinolin-4-amine]
CN(C)CCN1CCN(c2ccc(Nc3ccnc4ccc(-c5ccccc5)cc34)cc2)CC1 [N-(4-(4-(2-(dimethylamino)ethyl)piperazin-1-yl)phenyl)-6-phenylquinolin-4-amine]
COCCN1CCN(c2ccc(Nc3ccnc4ccc(-c5ccccc5)cc34)cc2)CC1 [N-(4-(4-(2-methoxyethyl)piperazin-1-yl)phenyl)-6-phenylquinolin-4-amine]
CCC(CC)N1CCN(c2ccc(Nc3ccnc4ccc(-c5ccccc5)cc34)cc2)CC1 [N-(4-(4-(pentan-3-yl)piperazin-1-yl)phenyl)-6-phenylquinolin-4-amine]
CCCCN1CCN(c2ccc(Nc3ccnc4ccc(-c5ccc(OC)cc5)cc34)cc2)CC1 [N-(4-(4-butylpiperazin-1-yl)phenyl)-6-(4-methoxyphenyl)quinolin-4-amine]
CCCCN1CCN(c2ccc(Nc3ccnc4ccc(-c5ccccc5)cc34)cc2)CC1 [N-(4-(4-butylpiperazin-1-yl)phenyl)-6-phenylquinolin-4-amine]
COc1ccc(-c2ccc3nccc(Nc4ccc(N5CCN(C6CCCCC6)CC5)cc4)c3c2)cc1 [N-(4-(4-cyclohexylpiperazin-1-yl)phenyl)-6-(4-methoxyphenyl)quinolin-4-amine]
c1ccc(-c2ccc3nccc(Nc4ccc(N5CCN(C6CCCCC6)CC5)cc4)c3c2)cc1 [N-(4-(4-cyclohexylpiperazin-1-yl)phenyl)-6-phenylquinolin-4-amine]
COc1ccc(-c2ccc3nccc(Nc4ccc(N5CCN(C6CCCC6)CC5)cc4)c3c2)cc1 [N-(4-(4-cyclopentylpiperazin-1-yl)phenyl)-6-(4-methoxyphenyl)quinolin-4-amine]
c1ccc(-c2ccc3nccc(Nc4ccc(N5CCN(C6CCCC6)CC5)cc4)c3c2)cc1 [N-(4-(4-cyclopentylpiperazin-1-yl)phenyl)-6-phenylquinolin-4-amine]
CCN1CCN(c2ccc(Nc3ccnc4ccc(-c5ccc(OC)cc5)cc34)cc2)CC1 [N-(4-(4-ethylpiperazin-1-yl)phenyl)-6-(4-methoxyphenyl)quinolin-4-amine]
CN1CCN(c2ccc(Nc3ccnc4ccc(-c5cncnc5)cc34)cc2)CC1 [N-(4-(4-methylpiperazin-1-yl)phenyl)-6-(pyrimidin-5-yl)quinolin-4-amine]
CCCN(c1ccc(N2CCN(C)CC2)cc1)c1ccnc2ccc(-c3ccccc3)cc12 [N-(4-(4-methylpiperazin-1-yl)phenyl)-6-phenyl-N-propylquinolin-4-amine]
CCC(C)N1CCN(c2ccc(Nc3ccnc4ccc(-c5ccc(OC)cc5)cc34)cc2)CC1 (stereo not shown) [N-(4-(4-sec-butylpiperazin-1-yl)phenyl)-6-(4-methoxyphenyl)quinolin-4-amine]
CCC(C)N1CCN(c2ccc(Nc3ccnc4ccc(-c5ccccc5)cc34)cc2)CC1 (stereo not shown) [N-(4-(4-sec-butylpiperazin-1-yl)phenyl)-6-phenylquinolin-4-amine]
